In PMC9697446 (International Journal of Molecular Sciences, 2022):

Tests used:
AChE = AChE (Homo sapiens, UniProt P22303); experiment: Kinetic analysis of AChE inhibition, steady-state inhibition constants; type: biochemical; details: for AChE inhibition constant αKi (noncompetitive component) / Ki: Lineweaver–Burk analysis; for Ki: read-out: AChE inhibition constant Ki (competitive component); for Mechanism of AChE inhibition: Lineweaver–Burk double reciprocal plot
Method: . The results were analyzed using the Lineweaver–Burk double reciprocal plot, and the graphical analysis of the kinetic data is shown in Figure 1. […]. To elucidate the inhibition mechanisms for the active compounds, the residual activity of AChE was determined in the presence of three increasing concentrations of the test compounds and six decreasing concentrations of the substrates. The test compounds were preincubated with the enzyme at 25 °C for 5 min, followed by the addition of the substrates. Parallel controls were made for an assay of the rate of hydrolysis of the same concentrations of substrates in the solutions with no inhibitor. The kinetic parameters of substrate hydrolysis were determined. Measurements were performed with a FLUOStar Optima microplate reader. Each experiment was performed in triplicate.

[1] = molecular target: T1, NMDA receptor intrachannel site ([3H]MK-801) (Rattus norvegicus, UniProt P35439); experiment: Radioligand binding, [3H]MK-801 site of the NMDA receptor
T1 construct: from tissue; host or cells: rat brain membranes
Method: (§1) The experiments were carried out using a rat brain membrane fraction.
(§2) The effect of test compounds on the radioligand binding to NMDA receptors was determined as previously described. Two radioactive ligands were used: [^3H] […] A pellet of rat brain membrane specimen was resuspended in a working buffer (5 mM HEPES/4.5 mM Tris buffer, pH 7.6) in a ratio of 1:5 and stored in liquid nitrogen. The reaction mixture (with a final volume of 0.5 mL) contained 200 µL of the working buffer, 50 µL of 50 nM radioligand solution, and 250 µL of the membrane suspension. Nonspecific binding was determined in the presence of 50 µL of […] of unlabeled ligand.
(§3) For the binding study, the reaction mixture was incubated at room temperature for 2 h. After incubation, the samples were filtered through GF/B glass-fiber filters (Whatman), washed with the working buffer, dried, and transferred to scintillation vials, and then 5 mL of scintillation fluid was added to the vials containing 4 g of diphenyloxazole (PPO), 0.2 g of diphenyloxazoil benzene (POPOP), and 1 L of toluene.
(§4) The effect of the test compounds on the binding of [^3H]

[2] = molecular target: T2, NMDA receptor peripheral site ([3H]ifenprodil) (Rattus norvegicus, UniProt P35439+Q00960); experiment: Radioligand binding, [3H]ifenprodil site of the NMDA receptor
T2 construct: from tissue; host or cells: rat brain membranes
T2 sequence (Q00960 27-1482, other chains not shown): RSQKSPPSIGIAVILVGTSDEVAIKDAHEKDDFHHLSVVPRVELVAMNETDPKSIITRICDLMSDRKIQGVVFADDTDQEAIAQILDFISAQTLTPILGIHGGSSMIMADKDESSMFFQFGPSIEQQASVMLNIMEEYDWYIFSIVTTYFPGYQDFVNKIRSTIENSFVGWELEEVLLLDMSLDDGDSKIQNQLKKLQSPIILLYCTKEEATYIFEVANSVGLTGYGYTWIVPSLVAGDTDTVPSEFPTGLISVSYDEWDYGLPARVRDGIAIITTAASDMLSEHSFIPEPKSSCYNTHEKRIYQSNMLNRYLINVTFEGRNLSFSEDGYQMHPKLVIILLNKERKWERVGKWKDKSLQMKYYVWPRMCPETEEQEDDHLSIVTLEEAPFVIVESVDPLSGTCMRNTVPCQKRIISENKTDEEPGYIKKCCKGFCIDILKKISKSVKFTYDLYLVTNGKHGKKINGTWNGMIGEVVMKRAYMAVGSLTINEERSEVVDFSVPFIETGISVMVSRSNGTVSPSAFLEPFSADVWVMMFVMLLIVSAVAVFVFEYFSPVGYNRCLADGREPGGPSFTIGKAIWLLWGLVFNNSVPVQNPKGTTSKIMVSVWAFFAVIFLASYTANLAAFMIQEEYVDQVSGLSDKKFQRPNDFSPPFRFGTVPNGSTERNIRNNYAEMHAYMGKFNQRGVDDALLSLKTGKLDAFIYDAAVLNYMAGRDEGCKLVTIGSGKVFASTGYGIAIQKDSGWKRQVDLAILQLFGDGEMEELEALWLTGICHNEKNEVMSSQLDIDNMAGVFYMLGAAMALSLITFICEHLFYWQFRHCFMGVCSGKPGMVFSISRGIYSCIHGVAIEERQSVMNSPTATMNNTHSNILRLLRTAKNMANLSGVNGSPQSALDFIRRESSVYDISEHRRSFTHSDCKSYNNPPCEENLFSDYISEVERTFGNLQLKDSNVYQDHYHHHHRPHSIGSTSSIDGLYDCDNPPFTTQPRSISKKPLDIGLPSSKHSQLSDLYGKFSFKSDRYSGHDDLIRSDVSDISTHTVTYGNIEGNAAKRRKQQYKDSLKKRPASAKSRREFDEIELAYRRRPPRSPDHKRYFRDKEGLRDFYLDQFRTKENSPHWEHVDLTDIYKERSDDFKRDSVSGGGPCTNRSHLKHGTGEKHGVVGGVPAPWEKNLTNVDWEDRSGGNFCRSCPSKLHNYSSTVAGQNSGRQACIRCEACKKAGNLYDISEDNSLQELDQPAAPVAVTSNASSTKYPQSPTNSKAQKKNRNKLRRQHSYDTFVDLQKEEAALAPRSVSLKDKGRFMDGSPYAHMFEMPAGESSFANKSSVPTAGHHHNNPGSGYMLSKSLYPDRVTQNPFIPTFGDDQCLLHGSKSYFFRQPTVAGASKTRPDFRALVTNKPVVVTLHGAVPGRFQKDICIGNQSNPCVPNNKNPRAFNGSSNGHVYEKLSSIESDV
Method: as §1, §2, §3, §4

tubulin = molecular target: T3, tubulin (Sus scrofa, UniProt P02550+P02554); experiment: Tubulin polymerization (microtubule assembly); type: biochemical; details: for Tubulin polymerization rate, % of control at 100 µM: read-out: Tubulin polymerization rate (dA355/dt), % Control; for Increase in the rate of tubulin polymerization: 100 µM
T3 construct: purchased Cytoskeleton, Inc. HTS-Tubulin polymerization assay kit
T3 sequence (P02550 whole entry): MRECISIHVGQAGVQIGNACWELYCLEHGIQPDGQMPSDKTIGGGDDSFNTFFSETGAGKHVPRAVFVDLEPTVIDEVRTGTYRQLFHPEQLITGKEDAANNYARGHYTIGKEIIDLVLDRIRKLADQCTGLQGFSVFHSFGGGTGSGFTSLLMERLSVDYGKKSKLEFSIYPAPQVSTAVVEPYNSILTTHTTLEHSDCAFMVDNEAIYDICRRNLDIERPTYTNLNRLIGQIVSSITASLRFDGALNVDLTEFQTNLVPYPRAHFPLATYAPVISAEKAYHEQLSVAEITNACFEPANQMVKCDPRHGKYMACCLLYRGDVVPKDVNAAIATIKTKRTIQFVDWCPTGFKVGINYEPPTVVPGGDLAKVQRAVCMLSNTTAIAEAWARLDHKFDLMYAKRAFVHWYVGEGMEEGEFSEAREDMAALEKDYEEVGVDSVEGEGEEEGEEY
T3 sequence (P02554 whole entry): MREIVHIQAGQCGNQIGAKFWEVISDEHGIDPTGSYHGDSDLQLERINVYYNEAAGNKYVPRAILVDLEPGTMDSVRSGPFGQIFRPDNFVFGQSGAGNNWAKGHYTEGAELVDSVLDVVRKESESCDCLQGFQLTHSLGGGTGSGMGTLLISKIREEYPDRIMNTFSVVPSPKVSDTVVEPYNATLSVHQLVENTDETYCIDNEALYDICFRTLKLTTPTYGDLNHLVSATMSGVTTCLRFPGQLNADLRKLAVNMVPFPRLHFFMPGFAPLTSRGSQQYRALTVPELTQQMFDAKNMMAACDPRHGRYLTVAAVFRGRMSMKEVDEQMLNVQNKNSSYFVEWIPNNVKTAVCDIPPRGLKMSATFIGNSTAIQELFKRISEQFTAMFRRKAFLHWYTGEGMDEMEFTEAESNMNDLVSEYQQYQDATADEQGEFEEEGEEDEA
Method: The assembly of tubulin into microtubules was carried out using pure tubulin from an HTS-Tubulin polymerization assay kit (Cytoskeleton, Inc., Denver, CO, USA). A standard polymerization reaction used 100 μL of 4 mg/mL tubulin in 80 mM PIPES (pH 6.9), 0.5 mM EGTA, 2 mM MgCl2, and 1 mM GTP. Polymerization was monitored by recording the change in absorbance on a Wallac Victor 3 1420 Multilabel Counter (Perkin Elmer, Turku, Finland) at λ = 3 55 nm. Electron microscopic monitoring was carried out with a Carl Zeiss Libra 120 electron microscope (Carl Zeiss Meditec AG, Jena, Germany) at 120 kV using negative contrasting.

[3] = tested on: isolated rat liver mitochondria; experiment: Bypass of rotenone (complex I) inhibition, mitochondrial repolarization; type: biochemical; details: mitochondria energized by glutamate/malate, rotenone added
Method: The ability to bypass complex I inhibition was determined for MB, its reduced form MBH2, and compound 4i (Figure 4).
The addition of rotenone to mitochondria energized by complex I substrates (glutamate/malate) causes considerable depolarization.
Safranine O (10 µM) was used as a membrane potential probe. Fluorescence intensity at 580 nm (excitation at 520 nm) was measured with a Wallac Victor 3 1420 Multilabel Counter (Perkin Elmer, Turku, Finland). The mitochondrial protein concentration was 0.2 mg/mL. The medium for measurements contained 75 mM sucrose, 225 mM mannitol, 10 mM K-HEPES (pH 7.4), 0.02 mM EGTA, and 1 mM KH2PO4. After a 5-min incubation, 5 mM glutamate/malate or 5 mM succinate in the presence of 0.5 µM rotenone were added to produce the mitochondrial potential. Then, the compounds (30 µM) or the same volume of the vehicle (DMSO) were injected into the mitochondrial suspension. After 15–20 min, 12.5 µM CaCl2 was added to each sample to induce the depolarization of mitochondria, and after 5 min, 0.5 µM CCCP was added for maximum depolarization of the mitochondria. The level of depolarization (ΔΨm) was calculated using the fluorescence value after 10-min incubation with 30 µM of compounds (or vehicle) normalized between the fluorescence measurements after substrate and CCCP addition, where fluorescence intensity at 580 nm was 100% after substrate addition and was 0% after CCCP addition.

[4] = tested on: isolated rat liver mitochondria; experiment: Oxygen consumption rate of mitochondria (Seahorse flux analyzer); type: biochemical; details: nanomolar concentrations; complex I substrates (glutamate and malate) and in the presence of rotenone
Method: Meanwhile, compound 4i can stimulate respiration of isolated rat liver mitochondria, which was estimated using an XFe96 Seahorse extracellular flux analyzer (Figure 5).
Analysis was based on the fluorometric determination of O2 and H^+ levels with solid-state probes on a sensor cartridge. The oxygen consumption rate (OCR) was measured successively in the presence of RC substrates and then after the addition of ADP (phosphorylating respiration), ATP synthase F^o-subunit inhibitor oligomycin (proton leak), oxidative phosphorylation uncoupler FCCP (maximal respiration), and the corresponding inhibitors of respiration chain complexes (non-mitochondrial respiration) (Figure 5a).
The oxygen consumption was measured using a Seahorse XF96 flux analyzer on mitochondria respiring on glutamate (5 mM) and malate (5 mM), according the same protocol as with a correction to a 96-well instead of a 24-well plate. Respiration by rat liver mitochondria (5 µg/well) was sequentially measured in a coupled state with substrates of complex I (basal respiration); followed by phosphorylating respiration after the addition of ADP; non-phosphorylating or resting respiration induced with the addition of oligomycin; uncoupled respiration stimulated by the addition of FCCP; and finally, non-mitochondrial respiration after the addition of the inhibitor of complex I rotenone.

[5] = tested on: isolated rat liver mitochondria; experiment: Mitochondrial membrane potential and calcium-induced depolarization (safranine O); type: biochemical; details: complex I inhibitor rotenone and a substrate of RC complex II
[6] = 100 µM compound, means ± SEM (n = 6)

Chain of AChE (P22303 32-588 isoform P22303-2): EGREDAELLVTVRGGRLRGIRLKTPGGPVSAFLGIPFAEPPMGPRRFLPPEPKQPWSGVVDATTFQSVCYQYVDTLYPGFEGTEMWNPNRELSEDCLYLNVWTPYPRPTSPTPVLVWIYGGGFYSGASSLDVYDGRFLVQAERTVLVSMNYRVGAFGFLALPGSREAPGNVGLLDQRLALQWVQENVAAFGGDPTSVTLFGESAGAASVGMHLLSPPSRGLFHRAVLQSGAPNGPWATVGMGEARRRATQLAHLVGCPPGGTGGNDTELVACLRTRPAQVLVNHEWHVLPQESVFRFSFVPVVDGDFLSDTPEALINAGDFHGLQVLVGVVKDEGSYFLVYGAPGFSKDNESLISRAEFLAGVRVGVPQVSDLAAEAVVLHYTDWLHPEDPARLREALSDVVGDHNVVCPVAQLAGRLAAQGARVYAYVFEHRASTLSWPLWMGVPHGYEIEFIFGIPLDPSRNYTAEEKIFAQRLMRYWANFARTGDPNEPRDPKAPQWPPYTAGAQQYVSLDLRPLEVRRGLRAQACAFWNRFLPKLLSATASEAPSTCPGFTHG

Structure (SMILES) | AChE inhibition constant αKi (noncompetitive component) (AChE) [µM] | Ki (AChE) [µM] | Mechanism of AChE inhibition (AChE) | IC50 [1] [µM] | IC50 [2] [µM] | Structure of microtubules formed (electron microscopy) (tubulin) | Tubulin polymerization rate, % of control at 100 µM (tubulin; [6]) [%] | Repolarization of rotenone-depolarized mitochondria (bypass of complex I inhibition) [3] | Phosphorylating respiration and maximal respiration (OCR) [4] | Effect on mitochondrial membrane potential at 1 μM, rotenone and complex II substrate [5] | Increase in the rate of tubulin polymerization (tubulin) | Tubulin polymerization rate (dA355/dt), % Control (tubulin; [6]) [% Control]
Cc1ccc2c(c1)c1c(n2CCC(=O)N2c3ccc(N(C)C)cc3Sc3cc(N(C)C)ccc32)CCCC1 [Compound 4c] | 5.83 ± 0.31 | 1.98 ± 0.17 | mixed type inhibition | – | – | – | – | – | – | – | – | –
CN(C)c1ccc2c(c1)Sc1cc(N(C)C)ccc1N2C(=O)CCn1c2c(c3cc(OC(F)(F)F)ccc31)CCCC2 [Compound 4h] | – | – | – | 116 ± 10.1 | 61.3 ± 6.5 | straight, long microtubules with a normal structure | 179 ± 27 | – | – | – | – | –
CC1CCc2c(c3cc(OC(F)(F)F)ccc3n2CCC(=O)N2c3ccc(N(C)C)cc3Sc3cc(N(C)C)ccc32)C1 (stereo not shown) [Compound 4i] | 3.19 ± 0.10 | 1.12 ± 0.05 | mixed type inhibition | 101 ± 9.2 | 10.4 ± 1.2 | straight, long microtubules with a normal structure | 207 ± 5 | exhibits this type of activity only in a 10 µM concentration | statistically significant increase | – | – | –
CN(C)c1ccc2c(c1)Sc1cc(N(C)C)ccc1N2C(=O)CCn1c2c(c3ccccc31)CCCCCC2 [Compound 4m] | 4.03 ± 0.15 | 1.06 ± 0.04 | mixed type inhibition | – | – | – | – | – | – | induced mitochondrial depolarization | – | –
CN(C)c1ccc2nc3ccc(=[N+](C)C)cc-3sc2c1 [MB, Methylene blue, reference compound] | – | – | – | – | – | straight, long microtubules with a normal structure | 168 ± 17 | concentration-dependent repolarization | – | induced mitochondrial depolarization | more than 1.5 fold | –
CN(C)c1ccc2c(c1)Sc1cc(N(C)C)ccc1N2 [MBH2, reference compound] | – | – | – | – | – | – | – | concentration-dependent repolarization | – | – | more than 1.5 fold | 178 ± 11
